The star is where a group is joined. Palmitoyl = CCCCCCCCCCCCCCCC(=O)*
Legend:
[1] = test system: SOD1; assay: LC-MS/MS relative protein abundance in HDF secretome/matrisome: SOD1; format: cell-based, human; conditions: HDFs, peptide 8 ppm, seven-day culture, secretome + matrisome
Protocol: (§1) Following incubation with the peptides, liquid chromatography tandem mass spectrometry (LC-MS/MS) was used to quantify the relative abundance differences between proteins identified in the secretome/matrisome, versus an untreated control. HDFs from a donor, plated at 50,000 cells per well, were cultured with either peptide dissolved in cell culture media to achieve a final concentration of 8 ppm or with media without any peptide as a negative control. Treated and control cells were tested in triplicate. The cells were cultured as normal for five days in serum-supplemented media and then for a further two days in serum-free media (seven-day culture in total). The cell media containing the secretome (the proteins secreted by the cell) and the ECM, decellularized by incubation with EDTA (ethylenediaminetetraacetic acid), containing the matrisome (the collection of ECM associated proteins) were collected. The combined secretome and the matrisome compartments were subsequently analysed by LC-MS/MS using the following protocol.
(§2) Proteins were denatured (in urea), reduced (in dithiothreitol) and mechanically disassociated (using ultrasonication) prior to overnight digestion with trypsin (SMART Digest™ trypsin kit; Thermo Fisher). After digestion, samples were cleaned of contaminants up by removal of organic molecules and surfactants using biphasic extraction and desalted using OLIGO™ R3 Reversed Phase Resin (Thermo Fisher).
(§3) Samples (200 ng) were ran on an UltiMate® 3000 Rapid Separation Liquid Chromatographer coupled to a Q Exactive™ Hybrid Quadrupole-Orbitrap™ Mass Spectrometer for 90-minutes per sample run. Spectral data was searched again the Uniprot Human proteome database using Mascot v2.5.1. Subsequent protein identification and data-dependent quantification was performed using Progenesis QI. Normalised protein abundances were compared between each peptide treatment and control. Statistical analysis was performed within Progenesis QI using a between sample ANOVA.
(§4) The mass spectrometry data for each peptide is shown below in table 3 and FIG. 1. Changes in protein synthesis abundance due to each peptide are described below, including changes to specific proteins and the protein families they belong to (table 3). […] These protein families were as follows: antioxidants, cell stress proteins, ECM cleaving enzymes and ECM adhesion proteins; functional protein families all with a potentially important role in dermal repair and remodelling.

[2] = test system: human dermal fibroblasts; assay: LC-MS/MS overall protein synthesis and functional protein families in HDFs (FIG. 1 bubble plot); format: cell-based; conditions: peptide 8 ppm, seven-day culture
Protocol: as §1, §2, §3, §4
In the bubble plot, the larger the bubble size, the stronger the enhancement of proteins within that protein family.

[3] = test system: HSP90B1; assay: LC-MS/MS relative protein abundance in HDF secretome/matrisome: HSP90B1; format: cell-based, human; conditions: HDFs, peptide 8 ppm, seven-day culture, secretome + matrisome
Protocol: as §1, §2, §3, §4

[4] = test system: HSPA8; assay: LC-MS/MS relative protein abundance in HDF secretome/matrisome: HSPA8; format: cell-based, human; conditions: HDFs, peptide 8 ppm, seven-day culture, secretome + matrisome
Protocol: as §1, §2, §3, §4

[5] = test system: CTSL; assay: LC-MS/MS relative protein abundance in HDF secretome/matrisome: CTSL; format: cell-based, human; conditions: HDFs, peptide 8 ppm, seven-day culture, secretome + matrisome
Protocol: as §1, §2, §3, §4

[6] = test system: CD44; assay: LC-MS/MS relative protein abundance in HDF secretome/matrisome: CD44; format: cell-based, human; conditions: HDFs, peptide 8 ppm, seven-day culture, secretome + matrisome
Protocol: as §1, §2, §3, §4

[7] = test system: PRDX4; assay: LC-MS/MS relative protein abundance in HDF secretome/matrisome: PRDX4; format: cell-based, human; conditions: HDFs, peptide 8 ppm, seven-day culture, secretome + matrisome
Protocol: as §1, §2, §3, §4

[8] = test system: Collagen I (PIP); assay: ELISA of Collagen I (PIP) in culture supernatant of human dermal fibroblasts; format: cell-based; conditions: HDFs, 72 hours, ELISA weighted to viable cells
Protocol: (§5) An ELISA is an immunological assay commonly used to measure presence and abundance of a specific proteins (antibodies, antigens, proteins and glycoproteins) in biological samples. In this case ELISAs are being used to quantify the expression of dermal extracellular proteins collagen-1, decorin and fibronectin. The quantity of collagen I is evaluated via the quantity of PIP (“carboxU-terminal pro-peptide of procollagen type I”) which is a peptide fragment resulting from the enzymatic degradation of procollagen present outside the fibroblast in the culture supernatant medium.
(§6) For all experiments, the control liquid stock was prepared by dissolving the powdered peptides in DMSO (Dimethyl Sulfoxide solvent). Peptide powders were dissolved in DMSO at recommended part per million concentrations and then further diluted in the cell culture medium and combined to obtain the desired peptide ratio.
(§7) Normal human dermal fibroblasts cells (HDFs) were cultured in contact with the tetrapeptides of the present invention, or composition without the peptide (negative control), for 72 hours. Thereafter the cultured supernatants were removed, and the quantity of dermal extracellular proteins determined using an ELISA assay for the protein of interest. For the ELISA quantification, cell viability was calculated using Hoechst staining allowing the quantity of dermal proteins to be weighted to the number of viable cells.
The quantity of Collagen I is evaluated via the quantity of PIP (“carboxU-terminal pro-peptide of procollagen type I”) which is a peptide fragment resulting from the enzymatic degradation of procollagen present outside the fibroblast in the culture supernatant medium.
(§8) The effect of LSXX tetrapeptides on ECM protein expression by fibroblasts as measured by ELISA (columns 1 to 3) versus a tetrapeptide not conforming to the LSXX structure (column 4) are presented in the table below (table 1). Results are expressed as % increase versus the negative control.

[9] = test system: Fibronectin; assay: ELISA of fibronectin in culture supernatant of human dermal fibroblasts; format: cell-based; conditions: HDFs, 72 hours, ELISA weighted to viable cells
Protocol: as §5, §6, §7, §8

[10] = test system: Decorin; assay: ELISA of decorin in culture supernatant of human dermal fibroblasts; format: cell-based; conditions: HDFs, 72 hours, ELISA weighted to viable cells
Protocol: as §5, §6, §7, §8

[11] = test system: Fibrillin-1; assay: Immunofluorescence of Fibrillin-1 expression by HDF cells; format: cell-based, human; conditions: HDFs, 5 days
Protocol: Immunofluorescence relies on the use of antibodies to label a specific protein with a fluorescent dye such as fluorescein isothiocyanate (FITC). In the following experiments, indirect immunofluorescence is used where a primary antibody first recognises and attaches to the specific protein, in this case fibrillin-1, and then a secondary antibody conjugated with FITC directed against the primary antibody is used for detection.
as §6
Fibrillin-1 expression was determined using immunofluorescence. Primary human dermal fibroblast (HDF) cells were purchased from Promo Cell and came from a donor. Cells were grown in wells of 96 well black walled clear bottomed plates (Peirce, Thermo Fisher). Cells were cultured in HDF media (PromoCell) supplemented with Basic Fibroblast Growth Factor (recombinant human), 1 ng/ml and Insulin 5 μg/ml. Cells were cultured for 5 days in the presence of the tetrapeptides, changing media and peptides every 48 hours, followed by immunofluorescence assessment. At the time of treatment cells were at passage 3-4. After 5 days the media was discarded, and cells fixed with methanol. The Fibrillin-1 fibre formation was probed using primary Fibrillin-1 monoclonal antibody (11C1.3; mouse monoclonal antibody (Thermo Fisher) 1 in 100 dilution overnight) designed to detect Fibrillin-1 protein. The Fibrillin-1 fibre formation was then probed with a secondary Goat anti-mouse IgG Thermo Fisher (1 part antibody in 1000 buffer solution for 1 hour) which includes a fluorescent tag designed to reveal the primary antibody binding pattern.
The antibody binding to Fibrillin-1 fibres was visualised using a Nikon Eclipse 100 microscope fluorescence setting using an excitation lens for fluorescein isothiocyanate (FITC). Images were taken using 6 second UV exposure. ImageJ software was used to quantify the Fibrillin-1 fibre abundance and coverage in each image using a threshold of 235 measuring the fibre density.
Results are expressed as a percentage increase in fibrillin abundance compared to untreated control.
Fibrillin-1 expression by HDF cells treated with tetrapeptides conforming to the LSXX structure (Pal-LSPG-OH, Pal-LSPD-OH and Pal-LSVD-OH) and a tetrapeptide not conforming to the LSXX structure (Pal-GYIL-OH), are presented in the table below (table 2). The peptide concentration used offered the highest yield of Fibrillin-1 production.

| Substance | CTSL (ECM cleaving enzymes) protein enhanced versus untreated control [5] | SOD1 (Antioxidants) protein enhanced versus untreated control [1] | overall protein synthesis / expression in comparison to the control [2] | HSP90B1 (Cell stress) protein enhanced versus untreated control [3] | HSPA8 (Cell stress) protein enhanced versus untreated control [4] | CD44 (ECM adhesion) protein enhanced versus untreated control [6] | PRDX4 (Antioxidants) protein enhanced versus untreated control [7] | Collagen I (PIP), % increase versus the negative control ([8]; peptide 5 ppm) | Fibronectin, % increase versus the negative control ([9]; peptide 5 ppm) | Decorin, % increase versus the negative control ([10]; peptide 5 ppm) | Fibrillin-1, percentage increase in fibrillin abundance compared to untreated control ([11]; peptide 10 ppm) | Fibrillin-1, percentage increase in fibrillin abundance compared to untreated control ([11]; peptide 4 ppm) | Collagen I (PIP), % increase versus the negative control ([8]; peptide 3 ppm) | Fibronectin, % increase versus the negative control ([9]; peptide 3 ppm) | Decorin, % increase versus the negative control ([10]; peptide 3 ppm) | Fibrillin-1, percentage increase in fibrillin abundance compared to untreated control ([11]; peptide 8 ppm) |
| --- | --- | --- | --- | --- | --- | --- | --- | --- | --- | --- | --- | --- | --- | --- | --- | --- |
| Pal-GYIL-OH [reference compound] | – | – | – | – | – | – | – | −4% | −23% | +2% | +3% | – | – | – | – | – |
| Pal-LSPD-OH (Palmitoyl-LSPD-OH; SMILES CCCCCCCCCCCCCCCC(=O)N[C@@H](CC(C)C)C(=O)N[C@@H](CO)C(=O)N1CCC[C@H]1C(=O)N[C@@H](CC(=O)O)C(=O)O) [N-palmitoyl tetrapeptide Leu-Ser-Pro-Asp, free C-terminus; LSXX tetrapeptide of the invention] | – | – | – | – | – | – | – | +82% | +92% | +24% | – | +98% | – | – | – | – |
| Pal-LSPG-OH (Palmitoyl-LSPG-OH; SMILES CCCCCCCCCCCCCCCC(=O)N[C@@H](CC(C)C)C(=O)N[C@@H](CO)C(=O)N1CCC[C@H]1C(=O)NCC(=O)O) [N-palmitoyl tetrapeptide Leu-Ser-Pro-Gly, free C-terminus; LSXX tetrapeptide of the invention] | +107% | +50% | overall enhancement of protein synthesis | +105% | +46% | +120% | +362% | – | – | – | – | – | +25% | +82% | +39% | +111% |

The next lines start with results.

| CTSL (ECM cleaving enzymes) protein enhanced versus untreated control [5] | Substance | SOD1 (Antioxidants) protein enhanced versus untreated control [1] | overall protein synthesis / expression in comparison to the control [2] | HSP90B1 (Cell stress) protein enhanced versus untreated control [3] | HSPA8 (Cell stress) protein enhanced versus untreated control [4] | CD44 (ECM adhesion) protein enhanced versus untreated control [6] | PRDX4 (Antioxidants) protein enhanced versus untreated control [7] | Collagen I (PIP), % increase versus the negative control ([8]; peptide 5 ppm) | Fibronectin, % increase versus the negative control ([9]; peptide 5 ppm) | Decorin, % increase versus the negative control ([10]; peptide 5 ppm) | Fibrillin-1, percentage increase in fibrillin abundance compared to untreated control ([11]; peptide 10 ppm) | Fibrillin-1, percentage increase in fibrillin abundance compared to untreated control ([11]; peptide 4 ppm) | Collagen I (PIP), % increase versus the negative control ([8]; peptide 3 ppm) | Fibronectin, % increase versus the negative control ([9]; peptide 3 ppm) | Decorin, % increase versus the negative control ([10]; peptide 3 ppm) | Fibrillin-1, percentage increase in fibrillin abundance compared to untreated control ([11]; peptide 8 ppm) |
| --- | --- | --- | --- | --- | --- | --- | --- | --- | --- | --- | --- | --- | --- | --- | --- | --- |
| ns | Pal-EKGD-OH [reference compound] | ns | no or limited protein expression | ns | ns | +29% | ns | – | – | – | – | – | – | – | – | – |
| +42% | Pal-LSVD-OH (Palmitoyl-LSVD-OH; SMILES CCCCCCCCCCCCCCCC(=O)N[C@@H](CC(C)C)C(=O)N[C@@H](CO)C(=O)N[C@H](C(=O)N[C@@H](CC(=O)O)C(=O)O)C(C)C) [N-palmitoyl tetrapeptide Leu-Ser-Val-Asp, free C-terminus; LSXX tetrapeptide of the invention] | +35% | overall enhancement of protein synthesis | +49% | +48% | +57% | +120% | +29% | +24% | +131% | +151% | – | – | – | – | – |
| +18% | Pal-QTAV-OH [reference compound] | ns | no or limited protein expression | +30% | +18% | +32% | ns | – | – | – | – | – | – | – | – | – |

Reference: US20230416304A1, “TETRAPEPTIDE AND COMPOSITIONS COMPRISING TETRAPEPTIDES” (THE BOOTS COMPANY PLC, priority 2020, published 2023)
